{
  "source": "patent US10392401B2",
  "about": "“Crystal form A of compound and preparation method thereof” (SHANGHAI INSTITUTE OF MATERIA MEDICA, CHINESE ACADEMY OF …, priority 2015, dated 2019)",
  "key": {"DPP IV [1]": {"target": "DPP IV (Homo sapiens, UniProt P27487)", "sequence (P27487 whole entry, species assumed)": "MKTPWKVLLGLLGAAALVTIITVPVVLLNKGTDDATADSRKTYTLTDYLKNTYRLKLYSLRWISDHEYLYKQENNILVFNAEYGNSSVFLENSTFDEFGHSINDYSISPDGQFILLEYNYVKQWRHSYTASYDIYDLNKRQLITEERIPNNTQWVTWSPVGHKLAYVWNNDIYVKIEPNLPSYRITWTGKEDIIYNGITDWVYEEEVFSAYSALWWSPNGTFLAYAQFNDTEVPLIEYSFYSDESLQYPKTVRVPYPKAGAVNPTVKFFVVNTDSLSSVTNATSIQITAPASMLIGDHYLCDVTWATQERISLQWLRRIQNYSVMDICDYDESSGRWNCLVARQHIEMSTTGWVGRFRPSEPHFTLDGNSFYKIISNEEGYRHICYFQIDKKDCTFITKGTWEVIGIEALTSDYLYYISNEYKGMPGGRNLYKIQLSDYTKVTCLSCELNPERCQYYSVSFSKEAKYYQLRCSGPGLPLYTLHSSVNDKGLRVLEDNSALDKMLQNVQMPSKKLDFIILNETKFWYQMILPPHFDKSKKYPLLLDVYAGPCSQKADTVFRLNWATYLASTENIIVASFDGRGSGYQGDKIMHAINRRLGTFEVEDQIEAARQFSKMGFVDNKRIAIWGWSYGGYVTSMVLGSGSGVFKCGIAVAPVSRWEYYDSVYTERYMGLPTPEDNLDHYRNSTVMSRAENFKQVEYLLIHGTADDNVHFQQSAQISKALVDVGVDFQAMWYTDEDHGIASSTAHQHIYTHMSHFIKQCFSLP", "assay": "DPP IV inhibitory activity and selectivity in vitro", "format": "biochemical"}, "DPP IV [2]": {"target": "T1, DPP IV (Mus musculus, UniProt P28843)", "T1 construct": "from tissue; host or cells: mouse plasma", "T1 sequence (P28843 37-760 limits assumed)": "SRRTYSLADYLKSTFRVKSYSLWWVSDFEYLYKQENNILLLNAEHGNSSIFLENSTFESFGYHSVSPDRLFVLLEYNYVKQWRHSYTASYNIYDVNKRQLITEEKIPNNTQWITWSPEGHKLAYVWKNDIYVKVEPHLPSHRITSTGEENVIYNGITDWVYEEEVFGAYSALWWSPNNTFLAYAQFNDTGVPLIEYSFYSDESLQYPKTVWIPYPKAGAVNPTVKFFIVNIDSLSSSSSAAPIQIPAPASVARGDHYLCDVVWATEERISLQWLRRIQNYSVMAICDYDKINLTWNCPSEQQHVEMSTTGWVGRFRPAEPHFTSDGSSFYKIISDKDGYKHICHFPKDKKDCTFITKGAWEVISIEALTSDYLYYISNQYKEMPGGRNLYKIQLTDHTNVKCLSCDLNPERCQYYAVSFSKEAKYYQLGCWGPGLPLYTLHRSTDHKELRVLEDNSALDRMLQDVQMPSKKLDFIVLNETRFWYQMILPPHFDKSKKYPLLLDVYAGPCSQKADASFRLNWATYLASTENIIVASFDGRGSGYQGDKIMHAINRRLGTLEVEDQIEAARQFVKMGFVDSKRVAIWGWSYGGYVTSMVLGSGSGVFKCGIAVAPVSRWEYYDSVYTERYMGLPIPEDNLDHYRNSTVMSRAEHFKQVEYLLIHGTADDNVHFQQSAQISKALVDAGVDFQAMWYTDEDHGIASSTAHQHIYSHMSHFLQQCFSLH", "assay": "Inhibition of DPP IV activity in normal mice plasma", "format": "in vivo"}, "DPP IV [3]": {"target": "T2, DPP IV (Rattus norvegicus, UniProt P14740)", "T2 construct": "from tissue; host or cells: rat plasma", "T2 sequence (P14740 37-767 limits assumed)": "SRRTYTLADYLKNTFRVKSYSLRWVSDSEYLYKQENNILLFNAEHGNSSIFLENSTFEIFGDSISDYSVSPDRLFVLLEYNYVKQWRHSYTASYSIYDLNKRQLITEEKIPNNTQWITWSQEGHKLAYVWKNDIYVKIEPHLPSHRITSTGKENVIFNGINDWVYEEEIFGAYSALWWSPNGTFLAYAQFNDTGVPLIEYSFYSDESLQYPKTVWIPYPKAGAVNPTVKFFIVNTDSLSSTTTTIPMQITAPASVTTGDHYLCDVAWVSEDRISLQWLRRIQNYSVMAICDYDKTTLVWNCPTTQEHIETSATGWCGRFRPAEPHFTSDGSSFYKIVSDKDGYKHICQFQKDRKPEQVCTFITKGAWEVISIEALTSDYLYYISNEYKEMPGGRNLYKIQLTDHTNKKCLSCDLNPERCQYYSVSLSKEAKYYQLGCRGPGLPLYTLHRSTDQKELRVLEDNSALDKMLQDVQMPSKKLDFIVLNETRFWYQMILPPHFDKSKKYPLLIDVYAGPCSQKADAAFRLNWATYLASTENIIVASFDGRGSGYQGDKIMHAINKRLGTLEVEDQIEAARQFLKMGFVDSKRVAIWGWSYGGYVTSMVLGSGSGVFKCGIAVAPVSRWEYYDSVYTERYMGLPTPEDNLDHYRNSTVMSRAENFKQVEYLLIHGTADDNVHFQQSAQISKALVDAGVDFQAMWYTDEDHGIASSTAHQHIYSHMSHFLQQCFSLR", "assay": "Inhibition of DPP IV activity in rat plasma", "format": "in vivo"}, "normal ICR mice": {"test_system": "normal ICR mice", "assay": "Oral glucose tolerance in normal ICR mice", "format": "in vivo"}, "ob/ob mice": {"test_system": "ob/ob mice", "assay": "Chronic administration to ob/ob mice, fasting blood glucose", "format": "in vivo"}, "[4]": {"test_system": "gene-deficient db/db mice", "assay": "Chronic administration to gene-deficient db/db mice, fasting blood glucose", "format": "in vivo"}, "[5]": {"assay": "Pharmacokinetic study in rats", "format": "in vivo", "conditions": "versus alogliptin"}, "[6]": {"assay": "Pharmacokinetic study in dogs", "format": "in vivo", "conditions": "versus alogliptin"}, "ICR mice": {"test_system": "ICR mice", "assay": "Acute toxicity test in ICR mice", "format": "in vivo", "conditions": "300 mg/kg group"}, "Rat": {"test_system": "Rat", "assay": "Subacute toxicity test in Rat", "format": "in vivo", "conditions": "oral, 150 mg/kg group"}, "[7]": {"assay": "Hygroscopicity analysis (DVS)", "format": "physicochemical", "method": "Dynamic vapor absorption (DVS) test/water absorption test is conducted by rapidly measuring the increase and loss of the moisture in the sample caused by flow carrier gas with setted relative humidity (RH). The sample is placed on a digital microbalance with high sensitivity and high stability at a self-suspension state, and then by measuring the increase/decrease of the material mass so as to measure the adsorption/desorption of water vapor, thereby determining the hygroscopicity of the sample.\nIn the present invention, the test parameters for DVS are as follows: Instrument type: SMS DVS Intrinsic; Non-hydrate: 0 to 95%-0% RH; Temperature: 25° C.; Hydrate: 40 to 95%-0% RH; Temperature: 25° C."}, "[8]": {"assay": "Oral hypoglycemic activity compared with amorphous powder", "format": "in vivo", "conditions": "orally administered; versus amorphous powder"}, "[9]": {"assay": "Solubility compared with amorphous powder", "format": "physicochemical", "conditions": "versus amorphous powder"}, "[10]": {"assay": "Oral absorption and bioavailability compared with amorphous powder", "format": "in vivo", "conditions": "versus amorphous powder"}, "[11]": {"assay": "Stability of the crystal form", "format": "physicochemical"}, "[12]": {"conditions": "versus positive control alogliptin"}},
  "note": "Where two headings read alike, the source gives them in different places.",
  "data": [
    {"smiles": "COC(=O)c1cc2nc(N3CCC[C@@H](N)C3)n(Cc3ccccc3C#N)c(=O)c2s1", "note": "[Formula I, (R)-methyl-2-(3-aminopiperidin-1-yl)-3-(2-cyanobenzyl)-4-carbonyl-3,4-dihydroth iophene[3,2-d] pyrimidine-6-carboxylic acid]", "values": [
      {"measurement": "type of DPP IV inhibition", "setting": "DPP IV [1]", "result": "selective and reversible competitive"},
      {"measurement": "inhibitory activity", "setting": "DPP IV [1]; in vitro", "result": "nanomolar level"},
      {"measurement": "inhibitory activity and selectivity in vitro compared with sitagliptin and vildagliptin", "setting": "DPP IV [1]; in vitro, versus listed drugs sitagliptin and vildagliptin", "result": "superior"},
      {"measurement": "DPP IV activity in plasma", "setting": "DPP IV [2]", "result": "effectively inhibit"},
      {"measurement": "DPP IV inhibitory activity compared with alogliptin", "setting": "DPP IV [2]; versus alogliptin", "result": "superior"},
      {"measurement": "DPP IV activity in plasma", "setting": "DPP IV [3]", "result": "effectively inhibit"},
      {"measurement": "DPP IV inhibitory activity compared with alogliptin", "setting": "DPP IV [3]; versus alogliptin", "result": "superior"},
      {"measurement": "effective dose for increasing oral glucose tolerance", "setting": "normal ICR mice; dose-dependent", "result": 0.1, "unit": "mg/kg"},
      {"measurement": "effect on oral glucose tolerance compared with alogliptin", "setting": "normal ICR mice; versus alogliptin", "result": "superior"},
      {"measurement": "fasting blood glucose", "setting": "ob/ob mice", "result": "effectively reduce"},
      {"measurement": "fasting blood glucose reduction compared with alogliptin", "setting": "ob/ob mice; [12]", "result": "superior"},
      {"measurement": "fasting blood glucose", "setting": "[4]", "result": "can reduce"},
      {"measurement": "fasting blood glucose reduction compared with alogliptin", "setting": "[4]; [12]", "result": "comparable"},
      {"measurement": "AUC0-t compared with alogliptin", "setting": "[5]", "result": "superior"},
      {"measurement": "half-life compared with alogliptin", "setting": "[5]", "result": "superior"},
      {"measurement": "AUC0-t compared with alogliptin", "setting": "[6]", "result": "superior"},
      {"measurement": "half-life compared with alogliptin", "setting": "[6]", "result": "superior"},
      {"measurement": "death in acute toxicity test", "setting": "ICR mice", "result": "no death"},
      {"measurement": "toxicity in subacute toxicity test", "setting": "Rat", "result": "no obvious toxicity"}
    ]},
    {"smiles": "COC(=O)c1cc2nc(N3CCC[C@@H](N)C3)n(Cc3ccccc3C#N)c(=O)c2s1", "note": "[crystal form A, (R)-methyl-2-(3-aminopiperidin-1-yl)-3-(2-cyanobenzyl)-4-carbonyl-3,4-dihydrothiop hene[3,2-d] pyrimidine-6-carboxylic acid]", "values": [
      {"measurement": "hygroscopicity", "setting": "[7]", "result": "less than 1%"},
      {"measurement": "moisture content", "setting": "[7]; 40% RH", "result": 0.26, "unit": "%"},
      {"measurement": "moisture absorbed", "setting": "[7]; 65% RH", "result": 0.42, "unit": "%"},
      {"measurement": "moisture absorbed", "setting": "[7]; 80% RH", "result": 0.57, "unit": "%"},
      {"measurement": "hygroscopicity (DVS)", "setting": "[7]; FIG. 5, crystal of Example 1", "result": "slight hygroscopicity"},
      {"measurement": "variation range of humidity", "setting": "[7]; range of conventional storage humidity", "result": "smaller than 2.0%"},
      {"measurement": "hygroscopicity", "setting": "[7]; relative humidity RH less than 50%", "result": "less than 0.3%"},
      {"measurement": "hypoglycemic activity compared with amorphous powder", "setting": "[8]", "result": "better"},
      {"measurement": "solubility compared with amorphous powder", "setting": "[9]", "result": "improve solubility"},
      {"measurement": "oral absorption ability compared with amorphous powder", "setting": "[10]", "result": "enhance oral absorption ability"},
      {"measurement": "stability, in particular thermal stability", "setting": "[11]; compared with the prior art", "result": "better stability"},
      {"measurement": "degradability", "setting": "[11]; conventional conditions", "result": "not easily degradable"}
    ]}
  ]
}
